Measurements taken from the RepoRT retention time repository (doi:10.1021/acs.analchem.1c00972).

What was measured:
[1] = RP, Waters ACQUITY UPLC BEH C18, 100 × 1 mm, 1.7 µm, 50 °C, 0.3 mL/min, estimated dead time 0.17 min; A: water + 0.1% formic acid + 20 mM ammonium formate; B: methanol + 0.1% formic acid + 20 mM ammonium formate; gradient (min/%B) 0/0 15/100 21/100 22/0 30/0; conditions: stereoisomer not certain
[2] = RP, Waters ACQUITY UPLC BEH C18, 100 × 1 mm, 1.7 µm, 50 °C, 0.3 mL/min, estimated dead time 0.17 min; A: water + 10 mM ammonium bicarbonate; B: 10% water + 90% methanol + 10 mM ammonium bicarbonate; gradient (min/%B) 0/0 15/100 21/100 22/0 30/0; conditions: stereoisomer not certain

Row | SMILES | LC retention time [1] [min] | LC retention time [2] [min]
1 | CCC1CCCC(OC2CCC(N(C)C)C(C)O2)C(C)C(=O)C2=CC3C(C=C(C)C4CC(OC5OC(C)C(OC)C(OC)C5OC)CC43)C2CC(=O)O1 (single isomer, unassigned; isomer 2) [Spinosad (Isomer 2)] | 16.1 | 19.2
2 | CCC(=NOCC=CCl)C1=C(O)CC(C2CCOCC2)CC1=O (single isomer, unassigned; peak1) [Tepraloxydim Peak1] | 14.7 | 9.25
3 | NC(=Nc1ccccc1)Nc1ccccc1 [1,3-Diphenylguanidine] | 8.76 | 10
4 | Cn1cnc2c1c(=O)n(CCCC(=O)O)c(=O)n2C [1-(3-carboxypropyl)-3,7-dimethylxanthine] | 8.38 | 6.58
5 | CCCCCCCCCCS(=O)(=O)O [1-Decanesulfonic acid] | 15.1 | 14.7
6 | CC(=O)OC1C(C)OC(n2cc(F)c(N)nc2=O)C1OC(C)=O (stereo not given) [2',3'-Di-O-acetyl-5'-deoxy-5-fluorocytidine] | 9.43 | 9.61
7 | CCCCCCCCCCSCCOCCO [2(2(decylsulfanyl)ethoxy)ethanol] | 17.7 | 18.1
8 | CCCCCCCCSCCOCCO [2(2(octylsulfanyl)ethoxy)ethanol] | 16.5 | 16.9
9 | c1ccc2sc(N3CCOCC3)nc2c1 [2(4-morpholinyl)benzothiazole] | 12.7 | 13.2
10 | Nc1ccc(Cc2ccc(N)c(Cl)c2)cc1Cl [2,2'-dichloro-4,4'-methylenedianiline] | 13.9 | 14.3
11 | c1ccc2sc(SSc3nc4ccccc4s3)nc2c1 [2,2-Dibenzothiazoyl disulfide] | 17.2 | 13.9
12 | O=C(O)COc1ccc(Cl)cc1Cl [2,4-Dichlorophenoxyacetic acid] | 12.9 | 10.6
13 | O=[N+]([O-])c1ccc(O)c([N+](=O)[O-])c1 [2,4-Dinitrophenol] | 9.71 | 6.21
14 | Nc1c(Cl)cc(C(F)(F)F)cc1Cl [2,6-Dichloro-4-trifluoromethylaniline] | 16.2 | 15.9
15 | CC(C)(C)c1cccc(C(C)(C)C)c1O [2,6-di-tert-Butylphenol] | 16.2 | 16.6
16 | COCCOCCOCCO [2-(2-(2-Methoxyethoxy)ethoxy)ethanol] | 6.67 | 6.68
17 | COc1cc(OC)nc(N)n1 [2-Amino-4,6-dimethoxypyrimidine] | 7.19 | 8.74
18 | CCCCOC(=O)COC(=O)c1ccccc1C(=O)OCCCC [2-Butoxy-oxoethylbutylphthalate] | 16.2 | 16.6
19 | Clc1ccccn1 [2-Chloropyridine] | 8.31 | 8.38

Row | SMILES | LC retention time [1] [min] | LC retention time [2] [min]
20 | CCCCCCOC(=O)c1ccccc1C(=O)OCC(CC)CCCC (stereo not given) [2-Ethylhexyl(hexyl)phthalate] | 18.9 | 19.4
21 | CCCCC(CC)COP(=O)(Oc1ccccc1)Oc1ccccc1 (stereo not given) [2-Ethylhexyldiphenyl phosphate] | 17.7 | 18.1
22 | Cc1cc(=O)[nH]c(C(C)C)n1 [2-Isopropyl-6-methyl-pyrimidin-4-ol] | 7.61 | 8.01
23 | c1ccc2sc(SN3CCOCC3)nc2c1 [2-Morpholinothiobenzothiazole] | 12.1 | 10
24 | CCCCCCCCn1sccc1=O [2-Octyl-4-isothiazolin-3-one] | 15 | 15.3
25 | Oc1cc(Cl)c(Cl)c(Cl)c1 [3,4,5-trichlorophenol] | 15.2 | 14.2
26 | CC(=O)OC1CC2(C)C3(CO3)C1OC1C=C(C)C(=O)C(O)C12CO (stereo not given) [3-Acetyl-Deoxynivalenol] | 9.62 | 9.74
27 | CN(C)C(=O)NC1CCCCC1 [3-Cyclohexyl-1,1-dimethylurea] | 10.9 | 11.1
28 | CNC(=O)Oc1cccc2c1OC(C)(C)C2O (stereo not given) [3-Hydroxycarbofuran] | 9.35 | 9.47
29 | CCCCNC(=O)OCC#CI [3-Iodopropynyl butylcarbamate] | 12.9 | 13.2
30 | Nc1ccc(Cc2ccc(N)cc2)cc1 [4,4'-Methylenedianiline] | 5.44 | 10.7
31 | CC12CCC3C(CCC4C(O)C(=O)C=CC43C)C1CCC2=O (stereo not given) [4- Hydroxyandrostenedione] | 11.7 | 11.9
32 | CC12CCC3C(CCC4=CC(=O)CCC43C)C1CCC2=O (stereo not given) [4-Androstene-3,17-dione] | 14 | 14.2
33 | COc1cc(Cl)c(OC)cc1N [4-Chloro-2,5-dimethoxyaniline] | 10.4 | 11.2
34 | Oc1c(Cl)cc(-c2ccc(Cl)cc2)cc1Cl [4-Hydroxy-3,4',5-trichlorobiphenyl] | 16.9 | 15.2
35 | O=C(O)Cc1ccccc1Nc1c(Cl)cc(O)cc1Cl [4-Hydroxy-Diclofenac] | 13.7 | 10.7
36 | CCc1cccc(C)c1N [6-Ethyl-2-toluidine] | 10.8 | 12.7
37 | CC(=O)OC1CCN2CC=C(COC(=O)C(O)(C(C)C)C(C)O)C12 (stereo not given) [7-Acetyllycopsamine] | 8.13 | 11.8

Further lines, results first:

Row | LC retention time [1] [min] | LC retention time [2] [min] | SMILES
38 | 2.7 | 6.92 | Nc1cccc2c(N)cccc12 [1,5-Naphthalenediamine]
39 | 13.9 | 14.2 | O=C(Nc1ccccc1)Nc1ccccc1Cl [1-(2-CHLOROPHENYL)-3-PHENYLUREA]
40 | 12.8 | 13 | CNC(=O)Nc1ccc(Cl)c(Cl)c1 [1-(3,4-Dichlorphenyl)-3-methyl-Harnstoff]
41 | 7.88 | 6.66 | c1ccc2n[nH]nc2c1 [1H-Benzotriazole]
42 | 12.7 | 7.64 | O=C(O)c1ccc(Cl)cc1Cl [2,4-Dichlorobenzoic acid]
43 | 7.37 | 13.6 | Cc1cc(C)c2ccccc2n1 [2,4-Dimethylchinolin]
44 | 7.57 | 7.59 | NC(=O)c1c(Cl)cccc1Cl [2,6-Dichlorobenzamide]
45 | 15.7 | 16 | O=Cc1ccccc1Nc1ccccc1Cl [2-(2-(Chlorophenyl)amino)benzaldehyde]
46 | 14 | 14.3 | CSc1nc2ccccc2s1 [2-(Methylthio)benzothiazole]
47 | 13.5 | 13.8 | Clc1nc2ccccc2s1 [2-Chlorobenzothiazole]
48 | 10.7 | 10.8 | NC(=O)N1c2ccccc2C=Cc2cc(O)ccc21 [2-Hydroxycarbamazepine]
49 | 17.2 | 17.5 | CC(C)c1ccc2sc3ccccc3c(=O)c2c1 [2-Isopropylthioxanthone]
50 | 11 | 8.11 | S=c1[nH]c2ccccc2s1 [2-Mercaptobenzothiazole]
51 | 12.3 | 12.6 | Cc1nc2ccccc2s1 [2-Methylbenzothiazole]
52 | 10 | 10.1 | Cc1cccc(Cl)c1NC(=O)N(C)C [3-(2-CHLORO-6-METHYLPHENYL)-1,1-DIMETHYLUREA]
53 | 15.9 | 16 | Oc1cc(-c2ccc(Cl)cc2)ccc1Cl [3-Hydroxy-4,4'-dichlorobiphenyl]
54 | 8.1 | 4.75 | CC(=O)Nc1ccc(N)cc1 [4'-Aminoacetanilide]
55 | 4.07 | 7.04 | CN(C)c1ccncc1 [4-(Dimethylamino)pyridine]
56 | 7.95 | 8.01 | CN(C)S(=O)(=O)c1ccc(N)cc1 [4-Amino-N,N-dimethylbenzenesulfonamide]
57 | 2.09 | 2.63 | NC(=O)c1ccc(N)cc1 [4-Aminobenzamide]
58 | 8.71 | 11.5 | Nc1ccc(Nc2ccccc2)cc1 [4-Aminodiphenylamine]
59 | 7.75 | 7.74 | Cc1c(C=O)c(=O)n(-c2ccccc2)n1C [4-Formyl-antipyrine]
60 | 14.3 | 17 | CCC(=C(c1ccc(O)cc1)c1ccc(OCCN(C)C)cc1)c1ccccc1 [4-Hydroxytamoxifen]
61 | 17.1 | 17.4 | Cc1ccc(C=C2C(=O)C3(C)CCC2C3(C)C)cc1 (stereo not given) [4-Methylbenzylidene camphor]
62 | 12.8 | 12.6 | Oc1ccc(C(F)(F)F)cc1 [4-Trifluoromethylphenol]
63 | 11 | 11.2 | CC(=O)Nc1cc(Cl)ccc1C [5'-CHLORO-2'-METHYLACETANILIDE]
64 | 12.2 | 12.5 | CCNc1ccc2c(C)cc(=O)oc2c1 [7-(Ethylamino)-4-methylcoumarin]
65 | 9.29 | 9.4 | Cc1cc(=O)oc2cc(N)ccc12 [7-Amino-4-methylcoumarin]
